Literature values as cited in US20210212962A1, “METHODS AND COMPOSITIONS FOR THE TREATMENT OF GRANULOMA ANNULARE OR SUBCUTANEOUS INFLAMMATION AND NON-INFECTION GRANULOMATOUS DISEASES” (Sol-Gel Technologies Ltd., priority 2020, published 2021).

Conditions: known for tapinarof treatments

SMILES: CC(C)c1c(O)cc(/C=C/c2ccccc2)cc1O [tapinarof, 3,5-dihydroxy-4-isopropyl-trans-stilbene]
- folliculitis as a side effect in tapinarof treatments: 10%
